Molecular target: Myeloid Cell Leukemia 1(Mcl-1) (Homo sapiens (Human), UniProt Q07820)
Assay: Terbium labeled Mcl-1 HTRF binding assay with Cy5-labeled BIM BH3 peptide
Description: Terbium labeled Myeloid Cell Leukemia 1(Mcl-1) homogeneous time-resolved fluorescence (HTRF) binding assay utilizing the BIM BH3 peptide (H2N-(C/Cy5Mal) WIAQELRRIGDEFN-OH) as the binding partner for Mcl-1.
This assay evaluated inhibition of the BH3 domain: Mcl-1 interaction by measuring the displacement of Cy5-labeled BIM BH3 peptide (H2N—(C/Cy5Mal) WIAQELRRIGDEFN-OH) in the HTRF assay format.
The following assay and stock buffers were prepared for use in the assay: (a) Stock buffer: 10 mM Tris-HCl, pH=7.5+150 mM NaCl, filtered, sterilized, and stored at 4° C.; and (b) 1× assay buffer, where the following ingredients were added fresh to stock buffer: 2 mM dithiothreitol (DTT), 0.0025% Tween-20, 0.1 mg/mL bovine serum albumin (BSA). The 1×Tb-Mcl-1+Cy5 Bim peptide solution was prepared by diluting the protein stock solution using the 1× assay buffer (b) to 25 pM Tb-Mcl-1 and 8 nM Cy5 Bim peptide.
Using the Acoustic ECHO, 100 nL of 100× test compound(s) were dispensed into individual wells of a white 384-well Perkin Elmer Proxiplate, for a final compound concentration of lx and final DMSO concentration of 1%. Inhibitor control and neutral control (NC, 100 nL of 100% DMSO) were stamped into columns 23 and 24 of assay plate. Into each well of the plate was then dispensed 10 μL of the 1×Tb-Mcl-1+Cy5 Bim peptide solution. The plate was centrifuged with a cover plate at 1000 rpm for 1 minute, then incubated for 60 minutes at room temperature with plates covered.
The TR-FRET signal was read on an BMG PHERAStar FSX MicroPlate Reader at room temperature using the HTRF optic module (HTRF: excitation: 337 nm, light source: laser, emission A: 665 nm, emission B: 620 nm, integration start: 60 μs, integration time: […]).
The BMG PHERAStar FSX MicroPlate Reader was used to measure fluorescence intensity at two emission wavelengths—665 nm and 620 nm—and report relative fluorescence units (RFU) for both emissions, as well as a ratio of the emissions (665 nm/620 nm)*10,000. The RFU values were normalized to percent inhibition as follows:
% inhibition=((NC−IC)−(compound−IC))/(NC−IC))*100
where IC (inhibitor control, low signal)=mean signal of 1×Tb-MCl-1+Cy5 Bim peptide+inhibitor control or 100% inhibition of Mcl-1; NC (neutral control, high signal)=mean signal 1×Tb-MCl-1+Cy5 Bim peptide with DMSO only or 0% inhibition An 11-point dose response curve was generated to determine IC50 values (using GenData) based on the following equation:
Y=Bottom+(Top−Bottom)/(1+10^((IogIC50−X)*HillSlope))
where Y=% inhibition in the presence of X inhibitor concentration; Top=100% inhibition derived from the IC (mean signal of Mcl-1+inhibitor control); Bottom=0% inhibition derived from the NC (mean signal of Mcl-1+DMSO); Hillslope=Hill coefficient; and IC50=concentration of compound with 50% inhibition in relation to top/neutral control (NC).
In this assay [L]=8 nM and Kd=10 nM

[1] = first table, [L]=8 nM, Kd=10 nM, before recalibration of the equipment
[2] = obtained after recalibration of the equipment, averaged values over several runs

Myeloid Cell Leukemia 1(Mcl-1), sequence (Q07820 whole entry): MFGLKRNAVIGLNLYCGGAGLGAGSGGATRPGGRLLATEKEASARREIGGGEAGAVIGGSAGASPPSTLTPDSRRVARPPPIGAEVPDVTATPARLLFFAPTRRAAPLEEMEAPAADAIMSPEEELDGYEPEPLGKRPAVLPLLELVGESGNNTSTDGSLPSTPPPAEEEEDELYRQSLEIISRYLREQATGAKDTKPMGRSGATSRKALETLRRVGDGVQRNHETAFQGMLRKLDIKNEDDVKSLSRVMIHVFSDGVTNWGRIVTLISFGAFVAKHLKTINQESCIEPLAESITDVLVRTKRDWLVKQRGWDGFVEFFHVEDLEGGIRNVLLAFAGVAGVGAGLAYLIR

Row | SMILES | Ki [1] | Ki [2]
1 | COC[C@@H]1/C=C/C[C@@H](C)[C@@H](C)S(=O)(=O)NC(=O)c2ccc3c(c2)N(C[C@@H]2CCN21)C[C@@]1(CCCc2cc(Cl)ccc21)CO3 [Compound 7] | 0.83 nM | 0.61 nM
2 | Cc1nc(COC[C@H]2/C(F)=C/C[C@H](C)[C@@H](C)S(=O)(=O)NC(=O)c3ccc4c(c3)N(C[C@@H]3CCN32)C[C@@]2(CCCc3cc(Cl)ccc32)CO4)no1 [Compound 24] | 0.63 nM | 0.47 nM
3 | C[C@@H]1[C@@H](C)C/C=C(\F)[C@H](COCC(=O)N2CC(F)(F)C2)N2CC[C@H]2CN2C[C@@]3(CCCc4cc(Cl)ccc43)COc3ccc(cc32)C(=O)NS1(=O)=O [Compound 19] | 0.43 nM | 0.36 nM
4 | C[C@@H]1[C@@H](C)C/C=C(\F)[C@H](COc2ccccn2)N2CC[C@H]2CN2C[C@@]3(CCCc4cc(Cl)ccc43)COc3ccc(cc32)C(=O)NS1(=O)=O [Compound 11] | 3.97 nM | 2.13 nM
5 | C[C@@H]1[C@@H](C)C/C=C(\F)[C@H](COCC2CCC2)N2CC[C@H]2CN2C[C@@]3(CCCc4cc(Cl)ccc43)COc3ccc(cc32)C(=O)NS1(=O)=O [Compound 26] | 4.72 nM | 2.87 nM
6 | CCOC[C@H]1/C(F)=C/C[C@H](C)[C@@H](C)S(=O)(=O)NC(=O)c2ccc3c(c2)N(C[C@@H]2CCN21)C[C@@]1(CCCc2cc(Cl)ccc21)CO3 [Compound 16] | 0.83 nM | –
7 | C[C@@H]1[C@@H](C)C/C=C(\F)[C@H](COCCCN2CCOCC2)N2CC[C@H]2CN2C[C@@]3(CCCc4cc(Cl)ccc43)COc3ccc(cc32)C(=O)NS1(=O)=O [Compound 25] | 0.2 nM | 0.21 nM
8 | COCCCOC[C@H]1/C(F)=C/C[C@H](C)[C@@H](C)S(=O)(=O)NC(=O)c2ccc3c(c2)N(C[C@@H]2CCN21)C[C@@]1(CCCc2cc(Cl)ccc21)CO3 [Compound 22] | 1.29 nM | 0.69 nM
9 | C[C@@H]1[C@@H](C)C/C=C(\F)[C@H](COCC(=O)N2CCOCC2)N2CC[C@H]2CN2C[C@@]3(CCCc4cc(Cl)ccc43)COc3ccc(cc32)C(=O)NS1(=O)=O [Compound 18] | 0.24 nM | 0.24 nM
10 | COC[C@H]1/C(F)=C/C[C@H](C)[C@@H](C)S(=O)(=O)NC(=O)c2ccc3c(c2)N(C[C@@H]2CCN21)C[C@@]1(CCCc2cc(Cl)ccc21)CO3 [Compound 13] | 0.49 nM | 0.51 nM
11 | C[C@@H]1[C@@H](C)C/C=C/C(CO)N2CC[C@H]2CN2C[C@@]3(CCCc4cc(Cl)ccc43)COc3ccc(cc32)C(=O)NS1(=O)=O (single isomer, unassigned) [Compound 10] | 2.65 nM | –
12 | C[C@@H]1[C@@H](C)C/C=C(\F)[C@H](COCCC2CCOCC2)N2CC[C@H]2CN2C[C@@]3(CCCc4cc(Cl)ccc43)COc3ccc(cc32)C(=O)NS1(=O)=O [Compound 23] | 1.52 nM | 0.82 nM
13 | C[C@@H]1[C@@H](C)C/C=C(\F)[C@H](CF)N2CC[C@H]2CN2C[C@@]3(CCCc4cc(Cl)ccc43)COc3ccc(cc32)C(=O)NS1(=O)=O [Compound 31] | – | 0.86 nM
14 | C[C@@H]1[C@@H](C)C/C=C(\F)[C@H](COc2ccccn2)N2CC[C@@H]2CN2C[C@@]3(CCCc4cc(Cl)ccc43)COc3ccc(cc32)C(=O)NS1(=O)=O [Compound 12] | – | 2.15 nM
15 | COC[C@H]1/C=C/C[C@@H](C)[C@@H](C)S(=O)(=O)NC(=O)c2ccc3c(c2)N(C[C@@H]2CCN21)C[C@@]1(CCCc2cc(Cl)ccc21)CO3 [Compound 4] | 1.98 nM | 3.15 nM
16 | CC(C)COC[C@H]1/C(F)=C/C[C@H](C)[C@@H](C)S(=O)(=O)NC(=O)c2ccc3c(c2)N(C[C@@H]2CCN21)C[C@@]1(CCCc2cc(Cl)ccc21)CO3 [Compound 15] | 3.64 nM | 2.33 nM
17 | C[C@@H]1[C@@H](C)C/C=C(\F)[C@H](CO)N2CC[C@H]2CN2C[C@@]3(CCCc4cc(Cl)ccc43)COc3ccc(cc32)C(=O)NS1(=O)=O [Compound 9] | 0.22 nM | 0.23 nM
18 | C[C@@H]1[C@@H](C)C/C=C(\F)[C@H](COCC(=O)O)N2CC[C@H]2CN2C[C@@]3(CCCc4cc(Cl)ccc43)COc3ccc(cc32)C(=O)NS1(=O)=O [Compound 17] | 0.13 nM | 0.17 nM
19 | COCC1/C=C/C[C@H](C)[C@@H](C)S(=O)(=O)NC(=O)c2ccc3c(c2)N(C[C@@H]2CCCN12)C[C@@]1(CCCc2cc(Cl)ccc21)CO3 (single isomer, unassigned) [Compound 8] | 2.04 nM | 2.64 nM
